Laboratory results as given in ChEMBL document CHEMBL3046190, “Acid promoted intramolecular formation of 3,5-anhydro-1,4-furano-7-ulose derivatives via the Wittig-cyclization procedure and their antimicrobial properties” (2013).
≈ marks a conversion by molar mass, not a printed value. Calls of active or inactive are those of the source. The calls are words filed in the database; no cut-off is given here.

Assays:
[1] = test system: Escherichia coli; test: Antimicrobial activity against Escherichia coli ATCC […] assessed as growth inhibition after 24-48 hr by broth microdilution technique; assay type: functional
[2] = test system: Klebsiella pneumoniae; test: Antimicrobial activity against Klebsiella pneumoniae CCM 2318 assessed as growth inhibition after 24 to 48 hr by broth microdilution technique; assay type: functional
[3] = test system: Staphylococcus aureus; test: Antimicrobial activity against Staphylococcus aureus ATCC 6538-P assessed as growth inhibition after 24-48 hr by broth microdilution technique; assay type: functional
[4] = test system: Bacillus subtilis; test: Antimicrobial activity against Bacillus subtilis ATCC 6633 assessed as growth inhibition after 24-48 hr by broth microdilution technique; assay type: functional
[5] = test system: Salmonella typhimurium; test: Antimicrobial activity against Salmonella enterica subsp. enterica serovar Typhimurium CCM 5445 assessed as growth inhibition after 24-48 hr by broth microdilution technique; assay type: functional
[6] = test system: Enterococcus faecalis; test: Antimicrobial activity against Enterococcus faecalis ATCC 29212 assessed as growth inhibition at 0.005 to 5 mg/ml after 24-48 hr by broth microdilution technique; assay type: functional, organism-based
[7] = test system: Candida albicans; test: Antimicrobial activity against Candida albicans ATCC 10239 assessed as growth inhibition after 24-48 hr by broth microdilution technique; assay type: functional
[8] = test system: Pseudomonas aeruginosa; test: Antimicrobial activity against Pseudomonas aeruginosa ATCC 27853 assessed as growth inhibition after 24-48 hr by broth microdilution technique; assay type: functional

`COC(C)(CC1O[C@H]2[C@H]3O[C@@H](C(Cl)(Cl)Cl)O[C@H]3O[C@H]12)OC` (stereo partly drawn) was tested, and the MIC [1] was 500 µg/mL (≈ 1.38 mM), the MIC [2] was 2500 µg/mL (≈ 6.88 mM) and the MIC [3] was “inactive”. For the same compound, the MIC [4] was 2500 µg/mL (≈ 6.88 mM), the MIC [5] was “inactive” and the “growth inhibition (GI)” value [6] was “inactive”. The MIC [7] was “inactive” and the MIC [8] was 500 µg/mL (≈ 1.38 mM).

`COC(C)(CC1O[C@H]2[C@H]3OC(C)(C)O[C@H]3O[C@H]12)OC` (stereo partly drawn) was tested, and the MIC [1] was “inactive”, the MIC [2] was “inactive” and the MIC [3] was 3500 µg/mL (≈ 12.8 mM). For the same compound, the MIC [4] was 1500 µg/mL (≈ 5.47 mM), the MIC [5] was 750 µg/mL (≈ 2.73 mM) and the “growth inhibition (GI)” value [6] was “inactive”. For the same compound, the MIC [7] was “inactive” and the MIC [8] was 750 µg/mL (≈ 2.73 mM).

With `COC(C)(CC1O[C@@H]2[C@H]3O[C@@H](C(Cl)(Cl)Cl)O[C@H]3O[C@H]12)OC` (stereo partly drawn) the MIC [1] was 500 µg/mL (≈ 1.38 mM), the MIC [2] was “inactive” and the MIC [3] was “inactive”. For the same compound, the MIC [4] was 500 µg/mL (≈ 1.38 mM), the MIC [5] was “inactive” and the “growth inhibition (GI)” value [6] was “inactive”. The MIC [7] was “inactive” and the MIC [8] was 500 µg/mL (≈ 1.38 mM).

With `COC(C)(CC1O[C@@H]2[C@H]3OC(C)(C)O[C@H]3O[C@H]12)OC` (stereo partly drawn) the MIC [1] was “inactive”, the MIC [2] was “inactive” and the MIC [3] was “inactive”. For the same compound, the MIC [4] was “inactive”, the MIC [5] was “inactive” and the “growth inhibition (GI)” value [6] was “inactive”. For the same compound, the MIC [7] was “inactive” and the MIC [8] was “inactive”.

`COC(C)(CC1O[C@H]2[C@H]3O[C@H](C(Cl)(Cl)Cl)O[C@H]3O[C@H]12)OC` (stereo partly drawn) was tested, and the MIC [1] was 250 µg/mL (≈ 0.688 mM), the MIC [2] was 2500 µg/mL (≈ 6.88 mM) and the MIC [3] was “inactive”. For the same compound, the MIC [4] was 500 µg/mL (≈ 1.38 mM), the MIC [5] was “inactive” and the “growth inhibition (GI)” value [6] was “inactive”. The MIC [7] was “inactive” and the MIC [8] was 500 µg/mL (≈ 1.38 mM).

In the case of `CC(=O)Cc1ccc(C=O)o1` [5-ACETYLMETHYL-FURFURAL], the MIC [1] is reported as 500 µg/mL (≈ 3.29 mM), the MIC [2] is reported as 2500 µg/mL (≈ 16.4 mM) and the MIC [3] is reported as “inactive”. The MIC [4] was 500 µg/mL (≈ 3.29 mM), the MIC [5] was 750 µg/mL (≈ 4.93 mM) and the “growth inhibition (GI)” value [6] was “inactive”. The MIC [7] was 2500 µg/mL (≈ 16.4 mM) and the MIC [8] was 500 µg/mL (≈ 3.29 mM).
